Measured values as given in patent US4472404A, “8-Quinolinyl carbamates and their use as urinary tract antimicrobials” (priority 1982, dated 1984).
In brackets after ≈: the same amount, converted by molar mass. Like-named read-outs stand apart in the source and are kept apart here.

How the values were obtained:
Assay type in all cases: cell-based
[1] = test system: Escherichia coli ATCC 9723; experiment: Minimum inhibitory concentration, urinary tract organisms (Example 13)
Method: (§1) The test compound was added to molten agar as a solution (when conveniently soluble in a solvent such as dimethylformamide) or a suspension forming a mixture having a concentration of 0.05 percent (500 ppm). The mixture was stirred and poured into plates to harden. When hardened, the plates were inoculated with various bacteria and fungi. The bacteria-inoculated plates were incubated at 37° C. for 24 hours, while the fungi-inoculated plates were incubated for about 72-120 hours. Following incubation, the plates were examined for growth or inhibition of the respective organisms.
(§2) After the initial readings, compounds showing sufficient activity were re-tested at various concentrations to determine the minimum inhibitory concentration (in ppm) of the compounds of the invention against the various bacteria and fungi tested.
(§3) Following a procedure substantially the same as that described in Example 12, the minimum inhibitory concentration for the compounds described herein was determined for various organisms representative of those commonly associated with urinary tract infections.
(§4) The organisms used in this procedure and the abbreviations designated in Table 3 are as follows: […]

[2] = test system: Pseudomonas aeruginosa ATCC 10145; experiment: as above
Method: as §1, §2, §3, §4

[3] = test system: Klebsiella pneumoniae ATCC 23357; experiment: as above
Method: as §1, §2, §3, §4

[4] = test system: Escherichia coli ATCC 25922; experiment: as above
Method: as §1, §2, §3, §4

[5] = test system: Pseudomonas aeruginosa PRD-10; experiment: as above
Method: as §1, §2, §3, §4

[6] = test system: Klebsiella pneumoniae M-1; experiment: as above
Method: as §1, §2, §3, §4

Proteus mirabilis 470/1 = experiment: as above
Method: as §1, §2, §3, §4

Serratia marcescens M-1 = experiment: as above
Method: as §1, §2, §3, §4

[7] = test system: Staphylococcus aureus ATCC 25923; experiment: as above
Method: as §1, §2, §3, §4

[8] = test system: Pseudomonas aeruginosa ATCC 27853; experiment: as above
Method: as §1, §2, §3, §4

[9] = test system: Escherichia coli ATCC 11229; experiment: as above
Method: as §1, §2, §3, §4

[10] = test system: Pseudomonas aeruginosa ATCC 7700; experiment: as above
Method: as §1, §2, §3, §4

[11] = test system: Klebsiella pneumoniae M-6; experiment: as above
Method: as §1, §2, §3, §4

[12] = test system: Escherichia coli ATCC 4157; experiment: as above
Method: as §1, §2, §3, §4

[13] = test system: Klebsiella pneumoniae M-2; experiment: as above
Method: as §1, §2, §3, §4

[14] = test system: Enterobacter aerogenes ATCC 13048; experiment: as above; details: Klebsiella aerogenes
Method: as §1, §2, §3, §4

Ceratocystis ips = experiment: Agar-plate minimum inhibitory concentration (Example 12); details: Ceratocystis ips; agar, 72-120 hours; read-out: Minimum Inhibitory Concentration
Method: as §1, §2

Candida albicans = experiment: as above; details: agar, 72-120 hours, read-out: Minimum Inhibitory Concentration
Method: as §1, §2

[15] = test system: Trichophyton mentagrophytes; experiment: as above; details: agar, 72-120 hours, read-out: Minimum Inhibitory Concentration
Method: as §1, §2

Aspergillus niger = experiment: as above; details: agar, 72-120 hours, read-out: Minimum Inhibitory Concentration
Method: as §1, §2

Candida pelliculosa = experiment: as above; details: Hansenula anomala; Candida pelliculosa; agar, 72-120 hours; read-out: Minimum Inhibitory Concentration
Method: as §1, §2

Salmonella typhosa = experiment: as above; details: Salmonella enterica; Salmonella typhosa; agar, 37° C., 24 hours; read-out: Minimum Inhibitory Concentration
Method: as §1, §2

Streptococcus mutans = experiment: as above; details: agar, 37° C., 24 hours, read-out: Minimum Inhibitory Concentration
Method: as §1, §2

Bacillus subtilis = experiment: as above; details: agar, 37° C., 24 hours, read-out: Minimum Inhibitory Concentration
Method: as §1, §2

[16] = ATCC9723, Ec 9723, read-out: Minimum Inhibitory Concentration
[17] = ATCC10145, Pa 10145, read-out: Minimum Inhibitory Concentration
[18] = ATCC23357, Kp 23357, read-out: Minimum Inhibitory Concentration
[19] = ATCC25922, Ec 25922, read-out: Minimum Inhibitory Concentration
[20] = PRD10, Pa PRD-10, read-out: Minimum Inhibitory Concentration
[21] = M1, Kp M-1, read-out: Minimum Inhibitory Concentration
[22] = Pm 470/1, read-out: Minimum Inhibitory Concentration
[23] = M1, Sr M-1, read-out: Minimum Inhibitory Concentration
[24] = ATCC25923, Sa 25923, read-out: Minimum Inhibitory Concentration
[25] = ATCC27853, Pa 27853, read-out: Minimum Inhibitory Concentration
[26] = ATCC11229, Ec 11229, read-out: Minimum Inhibitory Concentration
[27] = ATCC7700, Pa 7700, read-out: Minimum Inhibitory Concentration
[28] = M6, Kp M-6, read-out: Minimum Inhibitory Concentration
[29] = ATCC4157, Ec 4157, read-out: Minimum Inhibitory Concentration
[30] = M2, Kp M-2, read-out: Minimum Inhibitory Concentration
[31] = ATCC13048, Ea 13048, read-out: Minimum Inhibitory Concentration
[32] = M1, read-out: Minimum Inhibitory Concentration

| Structure (SMILES) | MIC [1, 16] [µg/mL] | MIC [2, 17] [µg/mL] | MIC [3, 18] [µg/mL] | MIC [4, 19] [µg/mL] | MIC [5, 20] [µg/mL] | MIC [6, 21] [µg/mL] | MIC (Proteus mirabilis 470/1; [22]) [µg/mL] | MIC (Serratia marcescens M-1; [23]) [µg/mL] | MIC [7, 24] [µg/mL] | MIC [8, 25] [µg/mL] | MIC [9, 26] [µg/mL] | MIC [10, 27] [µg/mL] | MIC [11, 28] [µg/mL] | MIC [12, 29] [µg/mL] | MIC [13, 30] [µg/mL] | MIC [14, 31] [µg/mL] | MIC (Ceratocystis ips) [µg/mL] | MIC (Candida albicans) [µg/mL] | MIC [15] [µg/mL] | MIC (Aspergillus niger) [µg/mL] | also measured |
| --- | --- | --- | --- | --- | --- | --- | --- | --- | --- | --- | --- | --- | --- | --- | --- | --- | --- | --- | --- | --- | --- |
| CCOC(=O)CNC(=O)Oc1ccc([N+](=O)[O-])c2cccnc12 [Example 5, Ethyl N-(((5-nitro-8-quinolinyl)oxy)carbonyl)glycinate] | 25 (≈ 78.3 µM) | 25 (≈ 78.3 µM) | 10 (≈ 31.3 µM) | 10 (≈ 31.3 µM) | 50 (≈ 157 µM) | 25 (≈ 78.3 µM) | 10 (≈ 31.3 µM) | 50 (≈ 157 µM) | 25 (≈ 78.3 µM) | 75 (≈ 235 µM) | 25 (≈ 78.3 µM) | 100 (≈ 313 µM) | 25 (≈ 78.3 µM) | 25 (≈ 78.3 µM) | 25 (≈ 78.3 µM) | 25 (≈ 78.3 µM) | 100 (≈ 313 µM) | 50 (≈ 157 µM) | 50 (≈ 157 µM) | 50 (≈ 157 µM) | MIC (Candida pelliculosa): 50 µg/mL (≈ 157 µM); MIC (Salmonella typhosa): 5 µg/mL (≈ 15.7 µM); MIC (Streptococcus mutans): > 500 µg/mL; MIC (Bacillus subtilis): 5 µg/mL (≈ 15.7 µM) |
| O=C(NCCCl)Oc1ccc(Cl)c2cccnc12 [Example 6, 5-Chloro-8-quinolinyl N-(2-chloroethyl)carbamate] | 50 (≈ 175 µM) |  | 250 (≈ 877 µM) | 75 (≈ 263 µM) | 500 (≈ 1750 µM) | 250 (≈ 877 µM) | 250 (≈ 877 µM) | 500 (≈ 1750 µM) | < 5 | 500 (≈ 1750 µM) | 75 (≈ 263 µM) | 500 (≈ 1750 µM) | 250 (≈ 877 µM) | 250 (≈ 877 µM) | 500 (≈ 1750 µM) | 500 (≈ 1750 µM) |  |  |  |  |  |
| CCOC(=O)CNC(=O)Oc1ccc(Cl)c2cccnc12.CS(=O)(=O)O [Example 7, Ethyl N-(((5-chloro-8quinolinyl)oxy)carbonyl)glycinate methanesulfonic acid salt] | 50 | 75 | 75 | 25 | 250 | 75 | 75 | 100 | < 5 | 250 | 50 | 250 | 50 | 50 | 75 | 75 | 50 | 50 | 10 | 50 | MIC (Candida pelliculosa): 50 µg/mL; MIC (Salmonella typhosa): 10 µg/mL; MIC (Streptococcus mutans): 500 µg/mL; MIC (Bacillus subtilis): 5 µg/mL |
| CCOC(=O)CNC(=O)Oc1ccc(Cl)c2cccnc12.Cl [Example 8, Ethyl N-(((5-chloro-8-quinolinyl)oxy)carbonyl)glycinate hydrochloride salt] | 25 | 75 | 50 | 25 | 100 | 50 | 50 | 75 | 10 | 100 | 25 | 100 | 25 | 25 | 50 | 50 | 50 | 10 | 10 | 10 | MIC (Candida pelliculosa): 10 µg/mL; MIC (Salmonella typhosa): 50 µg/mL; MIC (Streptococcus mutans): > 500 µg/mL; MIC (Bacillus subtilis): 1 µg/mL |
| CNC(=O)Oc1c(Br)cc(Br)c2cccnc12 [Example 11, 5,7-Dibromo-8-quinolinyl N-methylcarbamate] |  |  |  |  |  |  |  |  |  |  |  |  |  |  |  |  |  |  |  |  | MIC ([1]; ATCC9723, read-out: Minimum Inhibitory Concentration): 25 µg/mL (≈ 69.4 µM); MIC ([2]; ATCC10145, read-out: Minimum Inhibitory Concentration): 25 µg/mL (≈ 69.4 µM); MIC ([3]; ATCC23357, read-out: Minimum Inhibitory Concentration): 25 µg/mL (≈ 69.4 µM); MIC ([4]; ATCC25922, read-out: Minimum Inhibitory Concentration): 25 µg/mL (≈ 69.4 µM); MIC ([5]; PRD10, read-out: Minimum Inhibitory Concentration): 100 µg/mL (≈ 278 µM); MIC [6, 32]: 25 µg/mL (≈ 69.4 µM); MIC (Proteus mirabilis 470/1; 470/1, read-out: Minimum Inhibitory Concentration): 25 µg/mL (≈ 69.4 µM); MIC (Serratia marcescens M-1; [32]): 50 µg/mL (≈ 139 µM); MIC ([7]; ATCC25923, read-out: Minimum Inhibitory Concentration): 25 µg/mL (≈ 69.4 µM); MIC ([8]; ATCC27853, read-out: Minimum Inhibitory Concentration): 100 µg/mL (≈ 278 µM); MIC ([9]; ATCC11229, read-out: Minimum Inhibitory Concentration): 25 µg/mL (≈ 69.4 µM); MIC ([10]; ATCC7700, read-out: Minimum Inhibitory Concentration): 100 µg/mL (≈ 278 µM); MIC ([11]; M6, read-out: Minimum Inhibitory Concentration): 25 µg/mL (≈ 69.4 µM); MIC ([12]; ATCC4157, read-out: Minimum Inhibitory Concentration): 25 µg/mL (≈ 69.4 µM); MIC ([13]; M2, read-out: Minimum Inhibitory Concentration): 25 µg/mL (≈ 69.4 µM); MIC ([14]; ATCC13048, read-out: Minimum Inhibitory Concentration): 25 µg/mL (≈ 69.4 µM) |
